Values of other authors, collected in paper PMC5745029 (Bioconjugate chemistry, 2010).

Target: T1, human apical sodium dependent bile acid transporter (ASBT) (Homo sapiens, UniProt Q12908)
T1 sequence (Q12908 1-348): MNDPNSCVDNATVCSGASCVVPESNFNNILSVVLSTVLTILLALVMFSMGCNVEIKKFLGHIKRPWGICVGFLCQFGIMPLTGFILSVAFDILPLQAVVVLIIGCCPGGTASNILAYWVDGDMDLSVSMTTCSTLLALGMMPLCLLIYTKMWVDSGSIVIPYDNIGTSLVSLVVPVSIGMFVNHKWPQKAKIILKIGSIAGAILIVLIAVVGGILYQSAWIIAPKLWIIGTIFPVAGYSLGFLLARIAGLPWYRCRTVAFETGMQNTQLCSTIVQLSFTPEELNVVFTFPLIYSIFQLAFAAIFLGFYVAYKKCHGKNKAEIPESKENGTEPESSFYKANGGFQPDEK
Settings: ASBT-MDCK monolayer

For C[C@H](CCC(=O)O)[C@H]1CC[C@H]2[C@@H]3[C@H](O)C[C@@H]4C[C@H](O)CC[C@]4(C)[C@H]3CC[C@]12C [CDCA, chenodeoxycholate], the “ASBT inhibition among native bile acids” value is listed as “most potent inhibitor among native bile acids”.
